From patent publication US20220347175A1, “PYRIDAZINONE DERIVATIVE” (Sumitomo Dainippon Pharma Co., Ltd., priority 2018, published 2022)
One block for each compound: values may come before it.

What was measured:
[1] = target: T1, human Nav1.1 (Homo sapiens, UniProt P35498); experiment: Amplification of Nav1.1-derived voltage-dependent sodium current (Nav1.1 current), cell line stably expressing human Nav1.1, automated patch clamp; format: cell-based; conditions: for activation at 10 µM / activation at 1 µM: read-out: Nav1.1 current amplification rate (%)
T1 construct: host or cells: HEK293
Outline: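 Automated whole-cell voltage-clamp recordings used HEK293 cells stably expressing human Nav1.1, keeping only cells with >500 pA current, with currents evoked by ramp voltage. Compounds were applied in extracellular fluid with 1% DMSO, and amplification (%) was computed from peak current or AUC after versus before addition.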

[2] = target: T2, human Nav1.5 (Homo sapiens, UniProt Q14524); experiment: Amplification of Nav1.5-derived voltage-dependent sodium current (Nav1.5 current), cell line stably expressing human Nav1.5, automated patch clamp; format: cell-based; conditions: for activation at 10 µM / activation at 1 µM: read-out: Nav1.5 current amplification rate (%)
T2 construct: expressed in transfected cells; host or cells: CHO-K1 (T-REx System, ThermoFisher Scientific)

[3] = 10 μmol/L compound, change of the area under the curve of Nav1.1 current (Test Result 1)
[4] = 10 μmol/L compound, change of the area under the curve of Nav1.5 current (Test Result 1)
[5] = compound 3 μmol/L, HEK293 stably expressing human Nav1.1
[6] = compound 3 μmol/L, CHO-K1 stably expressing human Nav1.5
[7] = compound 1 μmol/L, HEK293 stably expressing human Nav1.1
[8] = compound 1 μmol/L, CHO-K1 stably expressing human Nav1.5

T2 sequence (Q14524 1-2015 isoform Q14524-2): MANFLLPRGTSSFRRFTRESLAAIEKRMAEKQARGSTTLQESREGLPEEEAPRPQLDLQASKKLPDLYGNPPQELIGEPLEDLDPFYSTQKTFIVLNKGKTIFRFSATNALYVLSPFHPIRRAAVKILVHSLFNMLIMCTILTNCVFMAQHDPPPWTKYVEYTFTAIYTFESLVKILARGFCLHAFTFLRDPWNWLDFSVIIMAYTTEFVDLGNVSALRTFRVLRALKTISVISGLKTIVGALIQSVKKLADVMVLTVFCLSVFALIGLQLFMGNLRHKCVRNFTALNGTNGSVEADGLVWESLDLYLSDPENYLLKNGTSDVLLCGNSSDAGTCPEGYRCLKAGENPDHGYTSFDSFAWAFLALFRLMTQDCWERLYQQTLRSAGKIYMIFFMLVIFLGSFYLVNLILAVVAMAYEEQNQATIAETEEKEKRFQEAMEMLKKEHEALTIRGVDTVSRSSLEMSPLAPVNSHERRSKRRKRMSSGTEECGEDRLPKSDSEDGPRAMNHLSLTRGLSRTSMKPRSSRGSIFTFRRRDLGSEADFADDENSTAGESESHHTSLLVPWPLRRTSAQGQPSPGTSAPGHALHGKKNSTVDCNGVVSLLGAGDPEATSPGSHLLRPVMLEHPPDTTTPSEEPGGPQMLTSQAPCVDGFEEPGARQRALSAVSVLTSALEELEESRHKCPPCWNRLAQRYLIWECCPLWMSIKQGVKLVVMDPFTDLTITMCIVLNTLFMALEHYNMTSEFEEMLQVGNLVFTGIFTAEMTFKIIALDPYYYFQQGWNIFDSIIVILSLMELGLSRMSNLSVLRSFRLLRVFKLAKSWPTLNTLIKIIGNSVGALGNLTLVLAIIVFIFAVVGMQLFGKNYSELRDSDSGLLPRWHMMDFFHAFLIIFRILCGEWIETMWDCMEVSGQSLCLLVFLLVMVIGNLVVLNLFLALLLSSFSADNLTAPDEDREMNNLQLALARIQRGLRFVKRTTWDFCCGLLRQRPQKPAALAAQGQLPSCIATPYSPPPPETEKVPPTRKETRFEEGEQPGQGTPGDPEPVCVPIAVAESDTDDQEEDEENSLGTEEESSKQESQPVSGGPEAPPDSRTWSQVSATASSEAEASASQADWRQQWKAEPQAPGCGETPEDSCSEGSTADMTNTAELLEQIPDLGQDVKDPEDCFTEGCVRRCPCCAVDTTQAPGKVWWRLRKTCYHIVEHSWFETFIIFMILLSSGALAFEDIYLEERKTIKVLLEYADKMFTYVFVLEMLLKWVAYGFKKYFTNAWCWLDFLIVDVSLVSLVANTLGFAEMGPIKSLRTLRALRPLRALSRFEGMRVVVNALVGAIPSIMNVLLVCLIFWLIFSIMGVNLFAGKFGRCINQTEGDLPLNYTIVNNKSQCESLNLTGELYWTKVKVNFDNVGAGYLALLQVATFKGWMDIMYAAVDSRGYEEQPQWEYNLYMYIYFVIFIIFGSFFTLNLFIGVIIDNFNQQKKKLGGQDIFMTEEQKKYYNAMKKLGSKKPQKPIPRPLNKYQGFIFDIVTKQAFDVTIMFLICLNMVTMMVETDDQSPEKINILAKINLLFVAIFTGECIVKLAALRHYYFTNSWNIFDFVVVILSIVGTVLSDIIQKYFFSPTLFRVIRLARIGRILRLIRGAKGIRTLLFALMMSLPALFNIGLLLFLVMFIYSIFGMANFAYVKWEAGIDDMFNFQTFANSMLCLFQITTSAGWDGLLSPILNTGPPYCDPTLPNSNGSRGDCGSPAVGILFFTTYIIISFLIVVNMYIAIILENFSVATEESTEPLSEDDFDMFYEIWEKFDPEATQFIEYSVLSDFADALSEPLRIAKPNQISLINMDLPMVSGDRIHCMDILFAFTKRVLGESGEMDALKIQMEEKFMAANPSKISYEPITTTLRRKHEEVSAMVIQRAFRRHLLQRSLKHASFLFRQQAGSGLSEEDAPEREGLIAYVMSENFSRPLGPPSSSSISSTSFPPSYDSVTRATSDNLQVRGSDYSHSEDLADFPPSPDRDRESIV

Compound: O=C(Cn1nc(N2CCC3(CCC3)C2)ccc1=O)Nc1ccc2c(c1)OCC2 [Example 172]
activation at 10 µM [1, 3]: 117% | activation at 10 µM [2, 4]: 4%

Compound: CC1CC=C(c2ccc(=O)n(CC(=O)N3CCc4c(C5CCNC5)cccc43)n2)CC1 (mixture of isomers) [Example 268]
Nav1.1 current amplification rate (%) [1, 5]: 55% | Nav1.5 current amplification rate (%) [2, 6]: 22%

Compound: Cc1cnc2cc(NC(=O)Cn3nc(N4CCC(C)CC4)ccc3=O)ccn12 [Example 232]
activation at 10 µM [1, 3]: 37% | activation at 10 µM [2, 4]: 8%

Compound: CC1CC=C(c2ccc(=O)n(CC(=O)N3CCN(c4nccs4)CC3)n2)CC1 (stereo not drawn) [Example 414]
Nav1.1 current amplification rate (%) [1, 3]: 40% | Nav1.5 current amplification rate (%) [2, 4]: −2%

Compound: COCc1nc2cc(NC(=O)Cn3nc(C4=CCC(C)CC4)ccc3=O)ccc2o1 (racemic) [Example 325]
Nav1.1 current amplification rate (%) [1, 5]: 233% | Nav1.5 current amplification rate (%) [2, 6]: 10%

Compound: CC1CC=C(c2ccc(=O)n(CC(=O)N3CCc4c(C5CN(C(=O)CO)C5)cccc43)n2)CC1 (racemic) [Example 321]
Nav1.1 current amplification rate (%) [1, 5]: 478% | Nav1.5 current amplification rate (%) [2, 6]: 330%

Compound: CC1CC=C(c2ccc(=O)n(CC(=O)N3CCc4c(-c5ccnn5C)cccc43)n2)CC1 (racemic) [Example 251]
Nav1.1 current amplification rate (%) [1, 5]: 307% | Nav1.5 current amplification rate (%) [2, 6]: 15%

Compound: CC1CCN(c2ccc(=O)n(CC(=O)Nc3cccc(-c4ncco4)c3)n2)CC1 [Example 78]
Nav1.1 current amplification rate (%) [1, 3]: 78% | Nav1.5 current amplification rate (%) [2, 4]: 4%

Compound: COc1ccc2c(c1)CCN2C(=O)Cn1nc(N2CCC3(CCC3)C2)ccc1=O [Example 187]
activation at 10 µM [1, 3]: 37% | activation at 10 µM [2, 4]: 17%

Compound: CC1(C)CCC=C(c2ccc(=O)n(CC(=O)Nc3ccc4ocnc4c3)n2)C1 [Example 129]
activation at 10 µM [1, 3]: 314% | activation at 10 µM [2, 4]: 25%

Compound: CC1CC=C(c2ccc(=O)n(CC(=O)N3CCc4c(-c5ccnnc5)cccc43)n2)CC1 (racemic) [Example 253]
Nav1.1 current amplification rate (%) [1, 5]: 455% | Nav1.5 current amplification rate (%) [2, 6]: 85%

The next lines start with results.

activation at 10 µM [1, 3]: 262%
Compound: Cc1cc(C2=CCC(C)(C)CC2)nn(CC(=O)N2CCN(c3cccnc3)CC2)c1=O [Example 513]
activation at 10 µM [2, 4]: 4%

Nav1.1 current amplification rate (%) [1, 3]: 420%
Compound: COc1cc(-c2cc(Cl)cs2)nn(CC(=O)N2CCc3c(N4CCOCC4)cccc32)c1=O [Example 479]
Nav1.5 current amplification rate (%) [2, 4]: 135%

Nav1.1 current amplification rate (%) [1, 3]: 387%
Compound: CC1CCC(c2ccc(=O)n(CC(=O)N3CCc4c(N5CCOCC5)cccc43)n2)CC1 (mixture of isomers) [Example 472]
Nav1.5 current amplification rate (%) [2, 4]: 56%

Nav1.1 current amplification rate (%) [1, 7]: 110%
Compound: O=C(Cn1nc(C2=CCCCC2)ccc1=O)N1CCc2c(N3CCOCC3)cccc21 [Example 480]
Nav1.5 current amplification rate (%) [2, 8]: 7%

activation at 1 µM [1, 7]: 101%
Compound: CC1(C)CC=C(c2ccc(=O)n(CC(=O)Nc3ccn4ncnc4c3)n2)CC1 [Example 429, 2-[3-(4,4-dimethylcyclohex-1-en-1-yl)-6-oxopyridazin-1(6H)-yl]-N-([1,2,4]triazolo[1,5-a]pyridin-7-yl)acetamide]
activation at 1 µM [2, 8]: 28%

Nav1.1 current amplification rate (%) [1, 3]: 235%
Compound: COc1cc(C2=CCC(C(F)(F)F)CC2)nn(CC(=O)N2CCc3c(N4CCOCC4)cccc32)c1=O (racemic) [Example 474]
Nav1.5 current amplification rate (%) [2, 4]: 26%

Nav1.1 current amplification rate (%) [1, 3]: 190%
Compound: O=C(Cn1nc(C2=CCC(C(F)(F)F)CC2)ccc1=O)N1CCN(c2cncc(F)c2)CC1 (racemic) [Example 487]
Nav1.5 current amplification rate (%) [2, 4]: 109%

Nav1.1 current amplification rate (%) [1, 3]: 114%
Compound: Cc1ccc(N2CCN(C(=O)Cn3nc(C4=CCC(C)(C)CC4)ccc3=O)CC2)cn1 [Example 443]
Nav1.5 current amplification rate (%) [2, 4]: 1%

Nav1.1 current amplification rate (%) [1, 5]: 23%
Compound: CC1CC=C(c2ccc(=O)n(CC(=O)N3C[C@H](C)N(c4cccnc4)C[C@H]3C)n2)CC1 (stereo partly drawn) [Example 417]
Nav1.5 current amplification rate (%) [2, 6]: 1%

activation at 1 µM [1, 7]: 499%
Compound: O=C(Cn1nc(C2=CCC3(CC2)CC3)ccc1=O)N1CCc2c(-c3ccnnc3)cccc21 [Example 526, 2-{2-oxo-2-[4-(pyridazin-4-yl)-2.3-dihydro-1H-indol-1-yl]ethyl}-6-(spiro[2.5]oct-5-en-6-yl)pyridazin-3(2H)one]
activation at 1 µM [2, 8]: 1%

activation at 10 µM [1, 3]: 239%
Compound: CC1CC=C(c2ccc(=O)n(CC(=O)Nc3ccn4ccnc4c3)n2)CC1 (stereo not drawn) [Example 532]
activation at 10 µM [2, 4]: 47%

activation at 1 µM [1, 7]: 198%
Compound: O=C(Cn1nc(C2=CCCCC2)ccc1=O)N1CCc2c(C3=CCOCC3)cccc21 [Example 528]
activation at 1 µM [2, 8]: 24%

Nav1.1 current amplification rate (%) [1, 3]: 633%
Compound: CC1(C)CC=C(c2ccc(=O)n(CC(=O)N3CCc4c(N5CCOCC5)cccc43)n2)C1 [Example 475]
Nav1.5 current amplification rate (%) [2, 4]: 70%
